Measured values: patent US6653081B2, “Methods for monitoring antiretroviral therapy and guiding therapeutic decision in the treatment of HIV/AIDS” (ViroLogic, Inc., priority 2000, dated 2003)

Tests used:
RTV-010829/270I = assay: Phenotypic susceptibility assay, RTV-010829/270I; assay type: cell-based, HIV; details: RTV-010829 with I270M reverted
From the text: (§1) The resistance test vectors containing a functional luciferase gene cassette were constructed and host cells were transfected with the resistance test vector DNA. The resistant test vectors contained patient-derived reverse transcriptase and protease sequences that were either susceptible or resistant to the antiretroviral agents, such as nucleoside reverse transcriptase inhibitors, (NRTIs) non-nucleoside reverse transcriptase inhibitors […] protease inhibitors. The resistance test vector viral particles produced by transfecting the resistance test vector DNA into host cells, either in the presence or absence of PRIs, were used to infect target host cells grown either in the absence of NRTIs or NNRTIs, or in the presence of increasing concentrations of the drug. The amount of luciferase activity produced in infected target host cells in the presence of varying concentrations of drug was compared to the amount of luciferase produced in infected target host cells in the absence of drug. “Drug resistance” was measured as the amount of drug required to inhibit by 50% the luciferase activity detected in the absence of drug (inhibitory concentration 50%, IC50). The IC50 values were determined by plotting percent drug inhibition vs. log10 drug concentration. Stimulation of viral replication was measured as the percent increase in luciferase activity detected when infection occurs in the presence of drug as compared to in the absence of drug.
(§2) Host cells were seeded in 10-cm-diameter dishes and were transfected several days after plating with resistance test vector plasmid DNA and the envelope expression vector. Transfections were performed using a calcium-phosphate precipitation procedure. The cell culture media containing the DNA precipitate was replaced with fresh medium, from one to 24 hours, after transfection. Cell culture media containing resistance test vector viral particles was harvested one to four days after transfection and was passed through a […] filter before being used to infect target host cells, or being stored at −80° C. HIV capsid protein (p24) levels in the harvested cell culture media were determined by an EIA method as described by the manufacturer (SAIC; Frederick, Md.). Before infection, target cells (293 and 293/T) were plated in cell culture media. Control infections were performed using cell culture media from mock transfections (no DNA) or transfections containing the resistance test vector plasmid DNA without the envelope expression plasmid. One to three or more days after infection, the media was removed and cell lysis buffer (Promega) was added to each well. Cell lysates were assayed for luciferase activity (FIG. 3). The inhibitory effect of the drug was determined using the following equation:
(§3) % luciferase inhibition=1−(RLUluc[drug]÷RLUluc)×100
(§4) where RLUluc [drug] is the Relative Light Unit of luciferase activity in infected cells in the presence of drug, and RLUluc is the Relative Light Unit of luciferase activity in infected cells in the absence of drug. IC50values were obtained from the sigmoidal curves that were generated from the data by plotting the percent inhibition of luciferase activity vs. the log10 drug concentration. The percent luciferase stimulation is the negative of the % inhibition calculated using the formula above.
A resistance test vector containing all of the mutations present in RTV-010829 except for the V245E mutation (RTV-010829/245V) was constructed and tested using the phenotypic assay described earlier. The results were compared to those determined using the parent RTV-010829. We determined the pattern of phenotypic susceptibility to the NNRTIs, delavirdine, nevirapine and efavirenz, in the reverted vector RTV-010829/245V. […] A resistance test vector containing all of the mutations present in RTV-010829 except for the I270M (RTV-010829/270I) was constructed and tested using the phenotypic assay described earlier. […]

RTV-006782 = assay: Phenotypic susceptibility assay, RTV-006782; assay type: cell-based, HIV; details: patient 006782; for decrease in susceptibility: V245T, I135T, E138A
From the text: as §1, §2, §3, §4
A resistance test vector was constructed as described in Example 1 from a virus sample obtained from patient 006782. The prior and current treatment regimens are unknown. Isolation of viral RNA and RT/PCR was used to generate a patient derived segment (PDS) that comprised viral sequences coding for all of PR and aa 1-313 of RT. The PDS were inserted into an indicator gene viral vector to generate a resistance test vector designated RTV-006782. RTV-006782 was then tested in a phenotypic assay to determine accurately and quantitatively the level of susceptibility to a panel of anti-retroviral drugs. […]

[1] = system: Patient-derived resistance test vectors containing mutations at 241 in addition to other NNRTI-resistance mutations; assay: Phenotypic susceptibility assay, patient-derived RTVs with mutations at 241; assay type: cell-based, HIV; details: 241 plus e.g. 101, 103, 106, 135, 138, 190
From the text: The resistance test vectors containing a functional luciferase gene cassette were constructed and host cells were transfected with the resistance test vector DNA. The resistant test vectors contained patient-derived reverse transcriptase and protease sequences that were either susceptible or resistant to the antiretroviral agents, such as nucleoside reverse transcriptase inhibitors, (NRTIs) non-nucleoside reverse transcriptase inhibitors (NRTIs) and protease inhibitors. […] The IC50 values were determined by plotting percent drug inhibition vs. log10 drug concentration. Stimulation of viral replication was measured as the percent increase in luciferase activity detected when infection occurs in the presence of drug as compared to in the absence of drug.
Host cells were seeded in 10-cm-diameter dishes and were transfected several days after plating with resistance test vector plasmid DNA and the envelope expression vector. […] HIV capsid protein (p24) levels in the harvested cell culture media were determined by an EIA method as described by the manufacturer (SAIC; Frederick, Md.). […] The inhibitory effect of the drug was determined using the following equation: […]

codon 181 mutant HIV-1 = details: cited from earlier work
P236L substitution RT = P236L substitution RT (Human immunodeficiency virus type 1 group M subtype B, UniProt P04585, P823L); details: cited from earlier work
viral load = assay: Viral load measurements in patient (Example 14); assay type: in vivo

| SMILES | drug-dependent stimulation of viral replication (RTV-010829/270I) | reductions in susceptibility compared to wild type control RTV (RTV-010829/270I) | drug-dependent stimulation of viral replication (RTV-006782) | decrease in susceptibility (RTV-006782) | reductions in susceptibility [1] | susceptibility / activity in the presence of the Y181C mutation (codon 181 mutant HIV-1) | reduction of the IC50 (P236L substitution RT) | viral load after removal of nevirapine from the regimen (viral load; patient on d4T, nevirapine, nelfinavir, saquinavir, baseline ~1,200,000 copies/ml) | reduction in viral load after removal of nevirapine from the regimen (viral load; same patient) | reduction in sensitivity (codon 181 mutant HIV-1; Y181C mutation) |
| --- | --- | --- | --- | --- | --- | --- | --- | --- | --- | --- |
| O=C1Nc2ccc(Cl)cc2[C@@](C#CC2CC2)(C(F)(F)F)O1 [efavirenz] | ~20% | 145 fold | ~25% | 5 fold | > 470 fold | retains activity |  |  |  |  |
| CC(C)Nc1cccnc1N1CCN(C(=O)c2cc3cc(NS(C)(=O)=O)ccc3[nH]2)CC1 [delavirdine] | ~40% | 247 fold | ~70% | 18.5 fold |  |  |  |  |  |  |
| Cc1ccnc2c1NC(=O)c1cccnc1N2C1CC1 [nevirapine] | ~30% | 341 fold | ~60% | 8 fold | > 600 fold |  | 7- to 10 fold | < 300,000 copies/ml | 4 fold | 100 fold |
